# Results taken from article PMC10349193 (CPT: Pharmacometrics & Systems Pharmacology, 2023).
# Several values for one entry are separate records, joined by “and”; a condition that tells them apart may be missing. Equal entries are not always repeated. Where two headings read alike, the source gives them in different places.
# Legend:
# Caco-2 = settings: ref SimCYP library version 19, cited from earlier work
# MDCK II = settings: fluvoxamine file with reference compounds; ref SimCYP library version 19; cited from earlier work
# CYP1A2 = test system: CYP1A2; parameters: method as in SimCYP library version 19; settings: ref SimCYP library version 19, cited from earlier work; for CYP1A2 CLint: recombinant enzyme kinetics
# CYP3A4 [1] = test system: CYP3A4; parameters: method as in SimCYP library version 19; settings: ref SimCYP library version 19, cited from earlier work
# CYP2B6 [2] = test system: CYP2B6; parameters: method as in SimCYP library version 19; settings: ref SimCYP library version 19, cited from earlier work
# [3] = model input; ref SimCYP library version 19; cited from earlier work
# [4] = model input; ref SimCYP library version 19; cited from earlier work; remark: listed apart in the source
# [5] = model input; ref SimCYP library version 19; cited from earlier work; remark: listed apart in the source
# [6] = ref SimCYP library version 19, cited from earlier work; for Volume [Vsac] / kin / kout: single adjusting compartment; for Vss: minimal PBPK model
# CYP2B6 [7] = settings: ref SimCYP library version 19, cited from earlier work
# CYP2A6 = settings: ref SimCYP library version 19, cited from earlier work
# [8] = Apparent permeability in Caco-2 monolayers; assay type: in vitro ADME; settings: human, Caco‐2, 10 μM; for Papp A→B at 2 h, 10 μM: read-out: P app,AP→BL, without inhibitor; for Papp B→A at 2 h, 10 μM: read-out: P app,BL→AP, without inhibitor; for efflux ratio at 2 h, 10 μM: read-out: Efflux ratio P app,BL→AP/AP→BL, without inhibitor
# P-gp [9] = molecular target: T1, P-gp (Homo sapiens, UniProt P08183); assay: P-gp substrate assessment in Caco-2 monolayers with verapamil; assay type: in vitro ADME; settings: Caco-2, with verapamil (concentration not stated), read-out: Efflux ratio P app,BL→AP/AP→BL, with inhibitor
# T1 construct: endogenous in cells; host or cells: Caco-2
# T1 sequence (P08183 whole entry): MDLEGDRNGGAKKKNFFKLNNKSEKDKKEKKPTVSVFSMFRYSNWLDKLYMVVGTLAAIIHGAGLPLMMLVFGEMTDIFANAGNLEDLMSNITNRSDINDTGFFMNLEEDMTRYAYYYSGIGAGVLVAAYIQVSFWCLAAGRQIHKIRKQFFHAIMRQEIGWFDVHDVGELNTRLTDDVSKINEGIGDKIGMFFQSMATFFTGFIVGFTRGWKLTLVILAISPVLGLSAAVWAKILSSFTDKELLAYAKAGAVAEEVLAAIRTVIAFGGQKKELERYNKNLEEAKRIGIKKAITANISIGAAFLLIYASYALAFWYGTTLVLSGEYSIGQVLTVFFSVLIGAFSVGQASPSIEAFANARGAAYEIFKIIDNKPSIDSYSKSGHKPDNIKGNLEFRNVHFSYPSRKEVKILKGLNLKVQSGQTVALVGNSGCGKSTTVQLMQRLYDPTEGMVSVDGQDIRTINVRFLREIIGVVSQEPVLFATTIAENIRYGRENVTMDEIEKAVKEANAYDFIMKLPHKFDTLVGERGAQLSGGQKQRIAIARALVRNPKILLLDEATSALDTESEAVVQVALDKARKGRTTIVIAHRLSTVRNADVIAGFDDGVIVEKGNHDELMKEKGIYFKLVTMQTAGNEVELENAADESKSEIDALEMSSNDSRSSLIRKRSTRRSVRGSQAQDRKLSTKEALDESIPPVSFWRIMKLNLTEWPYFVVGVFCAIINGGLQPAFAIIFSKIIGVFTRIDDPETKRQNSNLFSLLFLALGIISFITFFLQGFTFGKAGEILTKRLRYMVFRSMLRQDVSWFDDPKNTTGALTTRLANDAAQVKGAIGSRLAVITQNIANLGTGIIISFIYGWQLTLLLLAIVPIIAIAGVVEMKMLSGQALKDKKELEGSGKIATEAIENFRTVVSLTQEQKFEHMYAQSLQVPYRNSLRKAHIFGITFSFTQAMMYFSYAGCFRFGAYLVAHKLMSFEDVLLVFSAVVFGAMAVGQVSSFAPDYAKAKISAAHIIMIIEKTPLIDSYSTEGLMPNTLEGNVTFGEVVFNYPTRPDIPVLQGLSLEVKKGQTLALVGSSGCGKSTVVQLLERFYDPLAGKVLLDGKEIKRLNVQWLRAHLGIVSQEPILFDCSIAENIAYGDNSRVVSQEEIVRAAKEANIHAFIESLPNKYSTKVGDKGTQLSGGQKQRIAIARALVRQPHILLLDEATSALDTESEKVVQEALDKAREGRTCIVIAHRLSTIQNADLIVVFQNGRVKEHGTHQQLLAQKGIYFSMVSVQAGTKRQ
# P-gp [10] = test system: T2, P-gp; assay: as above; assay type: in vitro ADME; settings: human, Caco-2, with verapamil (concentration not stated); for Papp A→B at 2 h, 10 μM: read-out: P app,AP→BL, with inhibitor; for Papp B→A at 2 h, 10 μM: read-out: P app,BL→AP, with inhibitor
# T2 construct: endogenous in cells; host or cells: Caco-2
# [11] = parameters: method as in SimCYP library version 19; settings: ref SimCYP library version 19, cited from earlier work
# CYP2C19 = settings: ref SimCYP library version 19, cited from earlier work
# [12] = Clinical pharmacokinetic studies of PB-201; assay type: in vivo; settings: humans
# CYP3A4 [13] = assay: Clinical DDI study of PB-201 with ketoconazole (NCT01468714); assay type: in vivo, human; settings: inferred from clinical DDI study with strong CYP3A inhibitor
# [14] = Allometric scaling of clearance; settings: rats, dogs, and monkeys; clearance (intravenous), body weight, plasma unbound fraction
# [15] = cited from earlier work
# [16] = parameters: method as in earlier work; settings: bile duct‐cannulated rats; cited from earlier work
# OATP1B1 = test system: OATP1B1; parameters: method as in unpublished; settings: ref unpublished; cited from earlier work
# OATP1B3 = test system: OATP1B3; parameters: method as in unpublished; settings: ref unpublished; cited from earlier work
# [17] = cited from earlier work; remark: listed apart in the source
# CYP3A4 [18] = settings: ref NCT01468714, cited from earlier work; for Increase of PB‐201 systemic exposure on co‐administration with ketoconazole: clinical DDI study, strong CYP3A4 inhibitor
# [19] = Physicochemical properties
# CYP2D6 = settings: ref SimCYP library version 19, cited from earlier work
# proximal tubular cells = settings: Mech KiM; ref SimCYP library version 19; cited from earlier work
# SLC22A2 = settings: basal, ref SimCYP library version 19, cited from earlier work
# SLC22A8 = settings: basal, ref SimCYP library version 19, cited from earlier work
# ABCC4 = settings: apical, ref SimCYP library version 19, cited from earlier work
# SLC47As = settings: apical, ref SimCYP library version 19, cited from earlier work
# CYP3A4 [20] = settings: cited from earlier work
# CYP2C8 = test system: CYP2C8; parameters: method as in SimCYP library version 19; settings: ref SimCYP library version 19, cited from earlier work
# CYP3A5 = test system: CYP3A5; parameters: method as in SimCYP library version 19; settings: ref SimCYP library version 19, cited from earlier work
# CYP2C9 = settings: ref SimCYP library version 19, cited from earlier work
# [21] = competitive inhibition, unit inferred
compound,measurement,setting,value
COCCc1ccc(OCC(O)CNC(C)C)cc1 (stereo not shown) [Metoprolol],Caco-2 Papp,"Caco-2; pH 7.4: pH 7.4, Passive&Active, erythromycin file with reference compounds",145 10^-6 cm/s
same,MDCK II Papp,MDCK II,29.6 10^-6 cm/s
O=C1Nc2ccc(Cl)cc2[C@@](C#CC2CC2)(C(F)(F)F)O1 [Efavirenz],CYP1A2 CLint,CYP1A2,0.03 μL/min/pmol of isoform
same,fumic (CYP1A2 metabolism),CYP1A2,1
same,CYP3A4 CLint,CYP3A4 [1]; recombinant enzyme kinetics,0.01 μL/min/pmol of isoform
same,fumic (CYP3A4 metabolism),CYP3A4 [1],1
same,Fraction unbound in plasma,[3],0.029
same,Log P,[4],4.02
same,PSA,[4],38.33 A^2
same,Lag time,[5],0.36/30 h
same,fa,[5],0.67/15
same,fuGut,[5],0.005
same,ka,[5],0.41/15 1/h
same,Volume [Vsac],[6],1.1 L/kg
same,kin,[6],0.29 h⁻¹
same,kout,[6],0.9 h⁻¹
same,CYP2B6 CLint,CYP2B6 [7]; recombinant enzyme kinetics,1.36 μL/min/pmol of isoform
same,fumic (CYP2B6 metabolism),CYP2B6 [7],1
same,CYP2A6 CLint,CYP2A6; recombinant enzyme kinetics,0.47 μL/min/pmol of isoform
same,fumic (CYP2A6 metabolism),CYP2A6,1
CC(C)(C)NCC(O)COc1cccc2c1CC(O)C(O)C2 (stereo not shown) [Nadolol],"Papp A→B at 2 h, 10 μM",[8],0.721 ×10⁻⁶ cm/s
same,"Papp B→A at 2 h, 10 μM",[8],0.634 ×10⁻⁶ cm/s
same,"efflux ratio at 2 h, 10 μM",[8],0.88
same,"efflux ratio at 2 h, 10 μM",P-gp [9],0.554
same,"Papp A→B at 2 h, 10 μM",P-gp [10],0.657 ×10⁻⁶ cm/s
same,"Papp B→A at 2 h, 10 μM",P-gp [10],0.364 ×10⁻⁶ cm/s
CC(=O)O[C@H]1C(=O)[C@@]2(C)[C@H]([C@H](OC(=O)c3ccccc3)[C@]3(O)C[C@H](OC(=O)[C@H](O)[C@@H](NC(=O)c4ccccc4)c4ccccc4)C(C)=C1C3(C)C)[C@]1(OC(C)=O)CO[C@@H]1C[C@@H]2O [Taxol],"Papp A→B at 2 h, 10 μM",[8],0.0798 ×10⁻⁶ cm/s
same,"Papp B→A at 2 h, 10 μM",[8],0.56 ×10⁻⁶ cm/s
same,"efflux ratio at 2 h, 10 μM",[8],7.02
same,"efflux ratio at 2 h, 10 μM",P-gp [9],1.09
same,"Papp A→B at 2 h, 10 μM",P-gp [10],1.17 ×10⁻⁶ cm/s
same,"Papp B→A at 2 h, 10 μM",P-gp [10],1.28 ×10⁻⁶ cm/s
OC(Cn1cncn1)(Cn1cncn1)c1ccc(F)cc1F [Fluconazole],CLR,[11],0.86 L/h
same,Caco-2 Papp,"Caco-2; pH 6.5: pH 7.4, Passive&Active, fluconazole file",29.8 10^-6 cm/s
same,Vss,[6],0.76 L/kg
same,Volume [Vsac],[6],1e-05 L/kg
same,Ki,"CYP2C19; read-out: CYP2C19 Ki, competitive inhibition",2000 nM
same,fumic (CYP2C19 inhibition),CYP2C19,1
"Cc1cnc(NC(=O)c2cc(Oc3cnc(C(=O)N(C)C)nc3)c3cc(C)oc3c2)cn1 [PB‐201, N,N‐dimethyl‐5‐(2‐methyl‐6‐((5‐methylpyrazin‐2‐yl)‐carbamoyl) benzofuran‐4‐yloxy)pyrimidine‐2‐carboxamide]",CL renal,"[12]; human, urine, oral, from a clinical trial, source Measured, read-out: Typical renal clearance (converted)",1.65 mL/min
same,Observed distribution volume,[12]; assuming bioavailability 68% and body weight ~76.89 kg,1.983 L/kg
same,f m of CYP2C9 in vivo,CYP3A4 [13],less than 25%
same,Allometric exponent (b),[14],about 0.74
same,Food effect on systemic exposure,"[15]; fed (NCT01513928) vs fasted (NCT01272804), same dose, ref NCT01513928",significantly increase
same,Volume of distribution based on the terminal phase,"[15]; humans, 100 mg, ref NCT01044537",~ 254.4 L
same,Time (median) to reach maximum plasma concentration,"[15]; humans, after multiple doses, ref NCT01272804",2 to 3 h
same,Unchanged drug in the urine,"[15]; humans, ref NCT01272804",< 1%
same,Contribution of biliary excretion to elimination,[16],about 2.3%
same,OATP1B1 substrate assessment,OATP1B1,not a specific substrate
same,OATP1B3 substrate assessment,OATP1B3,not a specific substrate
same,Overall total incidence of hypoglycemia,"[17]; clinical studies, exposure‐response relationship, ref unpublished",about 3%
same,Safety and tolerability in clinical studies,[17]; dose range of 3–640 mg,safe and tolerable
same,solubility,physchem,~3 µg/mL
same,Increase of PB‐201 systemic exposure on co‐administration with ketoconazole,CYP3A4 [18],about 26.4%
same,Contribution (f m) of CYP3A4 to PB‐201 elimination in vivo,"CYP3A4 [18]; humans, fasted state, from clinical DDI study",~ 26.4% and 26.4%
same,logP,[19],1.38
same,pKa,[19],10.4
CN/C(=N/CCSCc1nc[nH]c1C)NC#N [Cimetidine],CLR,[11],31.6 L/h
same,Fraction unbound in plasma,[3],0.8
same,Lag time,[5],0.15/28 h
same,fa,[5],0.92/30
same,fuGut,[5],1
same,ka,[5],0.7/18 1/h
same,Reference compound Papp,"Caco-2; Caco-2 pH 6.5: pH 7.4, references of fluconazole file, unit not given",3.06
same,Ki,"CYP2D6; read-out: CYP2D6 Ki, competitive inhibition",3.5 µM
same,fumic (CYP2D6 inhibition),CYP2D6,1
same,"CLPD,apical",proximal tubular cells,2.61E-05 mL/min/million proximal tubular cells
same,"CLPD,basal",proximal tubular cells,2.61E-05 mL/min/million proximal tubular cells
same,fuKidney cell,proximal tubular cells,1
same,fuUrine,proximal tubular cells,1
same,SLC22A2 Jmax,SLC22A2,2170
same,Km,SLC22A2; read-out: SLC22A2 Km,72.6 µM
same,SLC22A8 Jmax,SLC22A8,1232
same,Km,SLC22A8; read-out: SLC22A8 Km,162 µM
same,ABCC4 Jmax,ABCC4,216
same,Km,ABCC4; read-out: ABCC4 Km,18.2 µM
same,SLC47As Jmax,SLC47As,135.5
same,Km,SLC47As; read-out: SLC47As Km,7.7 µM
CCC(C)n1ncn(-c2ccc(N3CCN(c4ccc(OCC5COC(Cn6cncn6)(c6ccc(Cl)cc6Cl)O5)cc4)CC3)cc2)c1=O (stereo not shown) [Itraconazole],CYP1A2 CLint,CYP1A2,1/1 μL/min/pmol
same,fumic (CYP1A2 metabolism),CYP1A2,1/1
same,CYP3A4 Vmax,CYP3A4 [1]; recombinant enzyme kinetics,0.065 pmol/min/pmol of isoform
same,fumic (CYP3A4 metabolism),CYP3A4 [1],1
same,Fraction unbound in plasma,[3],0.016
same,Log P,[4],4.47
same,Lag time,[5],0/30 h
same,QGut,[5],18.32/12
same,fa,[5],0.59/30
same,fuGut,[5],0.016
same,ka,[5],0.6/30 1/h
same,Volume [Vsac],[6],1e-05 L/kg
same,kin,[6],0 h⁻¹
same,fumic (CYP3A4 inhibition),CYP3A4 [20]; ref SimCYP library version 19,1
CC(=O)N1CCN(c2ccc(OCC3COC(Cn4ccnc4)(c4ccc(Cl)cc4Cl)O3)cc2)CC1 (stereo not shown) [Ketoconazole],CLpo,[11]; in vivo clearance,7.4/40 L/h
same,CLR,[11],0.147 L/h
same,Fraction unbound in plasma,[3],0.029
same,PSA,[4],69.06 A^2
same,Lag time,[5],0/30 h
same,fa,[5],1/30
same,fuGut,[5],0.06
same,ka,[5],0.78/30 1/h
same,Vss,[6],0.345 L/kg
same,Volume [Vsac],[6],1e-05 L/kg
same,kin,[6],0 h⁻¹
same,kout,[6],0 h⁻¹
